Data from ChEMBL document CHEMBL1201862, “PubChem BioAssay data set” (2004).
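Each compound was tested at five concentrations against cells in 96-well plates for 48 hours. GI50 marks 50% less growth.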 Active and inactive are the calls of the source. Rule as the data show it: active = GI50 up to about 1.1 µM and inactive = higher.

Columns and labels:
Test in all cases: NCI tumour cell line growth inhibition, 48 h
HCT-116 = tested on: HCT-116
Hs-578T = tested on: Hs-578T
LOX IMVI = tested on: LOX IMVI
OVCAR-8 = tested on: OVCAR-8
ACHN = tested on: ACHN
IGROV-1 = tested on: IGROV-1
SR = tested on: SR
A549 = tested on: A549
HOP-62 = tested on: HOP-62
U-251 = tested on: U-251
UACC-62 = tested on: UACC-62
SK-OV-3 = tested on: SK-OV-3
SW-620 = tested on: SW-620
SK-MEL-2 = tested on: SK-MEL-2
TK-10 = tested on: TK-10
SK-MEL-5 = tested on: SK-MEL-5
RPMI-8226 = tested on: RPMI-8226
UO-31 = tested on: UO-31
COLO 205 = tested on: COLO 205
T47D = tested on: T47D

Row | Structure (SMILES) | GI50 (HCT-116) | GI50 (Hs-578T) | GI50 (LOX IMVI) | GI50 (OVCAR-8) | GI50 (ACHN) | GI50 (IGROV-1) | GI50 (SR) | GI50 (A549) | GI50 (HOP-62) | GI50 (U-251) | GI50 (UACC-62) | GI50 (SK-OV-3) | GI50 (SW-620) | GI50 (SK-MEL-2) | GI50 (TK-10) | GI50 (SK-MEL-5) | GI50 (RPMI-8226) | GI50 (UO-31) | GI50 (COLO 205) | GI50 (T47D)
1 | CCC1(CC)C(=O)NN(C(=O)c2ccccc2)C1=O | > 100 µM (inactive) | > 100 µM (inactive) | > 100 µM (inactive) | > 100 µM (inactive) | > 100 µM (inactive) | > 100 µM (inactive) | > 100 µM (inactive) | > 100 µM (inactive) | > 100 µM (inactive) | > 100 µM (inactive) | > 100 µM (inactive) | > 100 µM (inactive) | > 100 µM (inactive) | > 100 µM (inactive) | > 100 µM (inactive) | > 100 µM (inactive) | > 100 µM (inactive) | > 100 µM (inactive) | > 100 µM (inactive) | > 100 µM (inactive)
2 | CCCC(=O)Nc1cc(C(=O)N2C[C@@H]3C[C@]34C2=CC(=O)c2[nH]cc(C)c24)n(COC)c1 | 7.87 µM (inactive) | 14.5 µM (inactive) | 2.62 µM (inactive) | 1.94 µM (inactive) | 5.93 µM (inactive) | 6.52 µM (inactive) | 0.566 µM (active) | 9.75 µM (inactive) | 14 µM (inactive) | 3.17 µM (inactive) | 5.86 µM (inactive) | 16.3 µM (inactive) | 1.62 µM (inactive) | 2.38 µM (inactive) | 10.7 µM (inactive) | 1.54 µM (inactive) | 12.2 µM (inactive) | 8.97 µM (inactive) | 5.93 µM (inactive) | 2.78 µM (inactive)
3 | COc1cc2c(cc1C)NC(=O)/C2=C/c1c(Cl)[nH]c2ccccc12 | 4.89 µM (inactive) | 3.26 µM (inactive) | 4.48 µM (inactive) | 11.8 µM (inactive) | 10.6 µM (inactive) | 3.3 µM (inactive) | 3.55 µM (inactive) | 6.05 µM (inactive) | 3.28 µM (inactive) | 4.69 µM (inactive) | 3.57 µM (inactive) | 1.47 µM (inactive) | 4.56 µM (inactive) | 2.8 µM (inactive) | 10.4 µM (inactive) | 3.15 µM (inactive) | 4.6 µM (inactive) | 10.3 µM (inactive) | 2.92 µM (inactive) | 5.61 µM (inactive)
